In publication PMC8346002 (International Journal of Molecular Sciences, 2021):
Entries after “also recorded” stand apart in the source; their conditions may differ. Like-named read-outs stand apart in the source and are kept apart here.

What was measured:
[1] = biological target: T1, cAMP receptor protein (CRP) (Escherichia coli, UniProt P0ACJ8); format: binding; conditions: CRP 2 µM, 25 °C, 50 mM MOPS pH 7.5, excitation 280 nm, ΔF(area) 334-348 nm; read-out: KD for nucleotide ligands on CRP
T1 construct: inferred from pET21a(+) and Ni-NTA/imidazole purification); made in house; host or cells: E. coli BL21 (DE3), pET21a(+)
Protocol: Figure 1 Binding of ppGpp to CRP determined by fluorescence spectroscopy. (a) The fluorescence Spectra of CRP in the presence of ppGpp. Following excitation at 280 nm, the emission spectra of CRP (2 µM) were recorded at 25 °C. (b) The fluorescence change (ΔF(area)) against ppGpp concentrations. Instead of using the fluorescence change at a fixed wavelength, the area below the spectra between 334 and 348 nm was used, and the area decrease (ΔF(area)) upon addition of ppGpp was utilized to calculate the extent of fluorescence quenching.
(§1) Fluorescence intensities were measured at 25 °C using a F-4500 Fluorescence Spectrophotometer (Hitachi corporation). H-NS and CRP in 50 mM MOPS buffer, pH 7.5 were excited at 280 nm and the emission spectra were recorded from 290 to 400 nm under various ligand concentrations. The dissociation constant, KD, was calculated using the equation, ΔF/ΔFM = (([L] + [P] + KD) − (([L] + [P] + KD)^2 − 4·[L]·[P])^0.5)/2·[P], where ΔF, ΔFM, [P], and [L] represent fluorescence change, the maximal fluorescence change, total protein concentration, and total ligand concentration, respectively. The area below the spectra in the 15 nm ranges was used to calculate ΔF in this study. The corrections for the inner filter effect, introduced by the ligands, was performed using the formula, Fcor = F × 10^(P + ΔA)/2, where F and Fcor denote fluorescence intensity before and after the correction, whereas P and ΔA indicate the initial sample absorption at the excitation wavelength and the change in absorption introduced by ligands, respectively.

[2] = biological target: T2, histone-like nucleoid structuring protein (H-NS) (Escherichia coli, UniProt P0ACF8); assay: biochemical; format: binding
T2 construct: inferred from Ni-NTA/imidazole purification; made in house; host or cells: E. coli BL21 (DE3); over-expressing strain obtained from Dr. Hyon E. Choy, originally from Dr. Bremer's laboratory
Protocol: Figure 3 Determination of the dissociation constant KD for ppGpp on H-NS by fluorescence spectrometry. (a) The emission spectra of H-NS in the presence of ppGpp. While H-NS (10µM) was excited at 280 nm, the emission spectra in the presence of various concentrations of ppGpp were recorded at 25 °C. (b) The difference in fluorescence (ΔF(area)) between 322 and 336 nm against ppGpp concentrations.
as §1

[3] = biological target: the molecule itself; assay: SEC; size exclusion chromatography of isolated CRP, single peak; data not shown
[4] = H-NS 10 µM, 25 °C, 50 mM MOPS pH 7.5, excitation 280 nm, ΔF(area) 322-336 nm, read-out: KD for nucleotide ligands on H-NS

T2 sequence (P0ACF8 whole entry): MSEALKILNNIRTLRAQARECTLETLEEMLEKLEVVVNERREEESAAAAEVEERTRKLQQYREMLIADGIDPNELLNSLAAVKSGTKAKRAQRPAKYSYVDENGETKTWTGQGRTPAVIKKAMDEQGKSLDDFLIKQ

Row | Molecule | Kd [1] | Kd [2, 4] | also measured
1 | Nc1nc2c(ncn2[C@@H]2O[C@@H]3COP(=O)(O)O[C@H]3[C@H]2O)c(=O)[nH]1 [cGMP] | 17 ± 1 µM |  | 
2 | Nc1nc2c(ncn2[C@@H]2O[C@H](COP(=O)(O)OP(=O)(O)O)[C@@H](O)[C@H]2O)c(=O)[nH]1 [GDP] | 62 ± 4 µM | 72 ± 6 µM | 
3 | Nc1ncnc2c1ncn2[C@@H]1O[C@H](COP(=O)(O)OP(=O)(O)OP(=O)(O)O)[C@@H](O)[C@H]1O [ATP] | 33 ± 4 µM |  | KD for nucleotide ligands on H-NS ([2]; H-NS 10 µM, 25 °C, 50 mM MOPS pH 7.5, excitation 280 nm, ΔF(area) 322-336 nm): does not show a saturation curve; also recorded: did not show a saturation curve
4 | Nc1nc2c(ncn2[C@@H]2O[C@H](COP(=O)(O)OP(=O)(O)OP(=O)(O)O)[C@@H](O)[C@H]2O)c(=O)[nH]1 [GTP] | 35 ± 3 µM | 120 ± 25 µM | 
5 | Nc1ncnc2c1ncn2[C@@H]1O[C@@H]2COP(=O)(O)O[C@H]2[C@H]1O [cAMP] |  |  | Kd [2]: 270 ± 40 µM
6 | cyclic AMP receptor protein (CRP) from Escherichia coli (natural protein, E. coli K12 MG1655, cAMP receptor protein (CRP) of E. coli K12 MG1655; the gene was amplified by PCR from genomic DNA and cloned into pET21a(+) with NdeI and XhoI; About 24 kDa on SDS-PAGE; it is inferred from the vector and the Ni-NTA column; also called CAP; source: E. coli BL21 (DE3), pET21a(+), purified (Ni-NTA, desalting column)) MVLGKPQTDPTLEWFLSHCHIHKYPSKSTLIHQGEKAETLYYIVKGSVAVLIKDEEGKEMILSYLNQGDFIGELGLFEEGQERSAWVRAKTACEVAEISYKKFRQLIQVNPDILMRLSAQMARRLQVTSEKVGNLAFLDVTGRIAQTLLNLAKQPDAMTHPDGMQIKITRQEIGQIVGCSRETVGRILKMLEDQNLISAHGKTIVVYGTR |  |  | stoichiometry N [3]: 2
